Results reported in publication PMC11460632, “Chemical modification of hyaluronan oligosaccharides differentially modulates hyaluronan–hyaladherin interactions” (The Journal of Biological Chemistry, 2024).
“Also recorded” adds a separate entry of the source. Where two headings read alike, the source gives them in different places.

Key:
recombinant human TSG-6 = target: T1, recombinant human TSG-6 (Homo sapiens, UniProt P19827+P98066); test: In vitro HC-transfer assay (IαI + rhTSG-6, Western blot anti-HC1); assay type: biochemical; settings: 15 μM HA, 1.8 μM IαI, rhTSG-6, 2 h at 37 °C; for Substrate for HC transfer: Table 6; for Activity as substrate for HC transfer (text): Western blot anti-HC1
T1 construct: TSG-6–mediated HC-transfer assays (using full-length TSG6); purchased R&D Systems
Protocol: Covalent transfer of HC from IαI onto unmodified and chemically modified HA oligosaccharides was analyzed using the assay described previously ([26]). All reactions were performed using a buffer of 20 mM Hepes, pH 7.5, 150 mM NaCl, and 5 mM MgCl2. In a “standard” assay, HA oligosaccharides were at 15 μM, human IαI ([97]) 1.8 at μM (based on a molecular weight of 180 kDa), and recombinant human TSG-6 (R&D Systems) at 2.8 μM (based on a molecular weight of 35 kDa). Reaction mixtures were analyzed by SDS-PAGE using 4 to 12% bis-tris polyacrylamide gels (Invitrogen). For Western blot analysis, proteins were transferred onto nitrocellulose membrane (GE Healthcare) and incubated with antisera against HC1 (CP7, 1:10,000; ([98])). Bound primary antibody was detected using goat-anti-rabbit IgG conjugated to IR dye (LI-COR Biosciences) and blots imaged using an Odyssey Clx near-IR fluorescence imaging system (LICOR Biosciences).

hisCD44_HABD^20–169 = target: T2, hisCD44_HABD^20–169 (Homo sapiens, UniProt P16070); test: MST of HA oligosaccharides binding to hisCD44_HABD^20–169; settings: for Kd: 10 mM Hepes pH 7.5, 150 mM NaCl, 0.05% Tween-20, 25 °C, three titrations, read-out: KD; for % Binding affinity hisCD44_HABD^20–169: Table 6, relative to unmodified oligosaccharide of the same length, by MST
T2 construct: A novel construct consisting of residues 20 to 169 of human CD44 and an N-terminal six-histidine tag; made in house
Protocol: For hisCD44_HABD^20–169, interactions with HA oligosaccharides were assessed using MST. Protein (200 nM) was labeled with 5 μM red-Tris-NTA-650 dye following the manufacturer’s instructions in 10 mM Hepes, pH 7.4, 150 mM NaCl, 0.05% (v/v) Tween-20 (interaction buffer). Stock solutions of HA oligosaccharides (5 mM in interaction buffer) were serially diluted (1:1 in interaction buffer) 16 times before each concentration was mixed with an equal volume of labeled protein (10 nM final concentration hisCD44_HABD^20–169). Samples were loaded into standard glass capillaries (NanoTemper) and thermophoresis measured at 25 °C (with active temperature control) using a Monolith NT.115pico instrument (NanoTemper) running NT Control software (version 1.0.1). All experiments were performed in triplicate and data analyzed with the “KD fit model” in the NT Analysis software (version 2.0.2).

Link_TSG6 = target: T3, Link_TSG6 (Homo sapiens, UniProt P98066); test: ITC of HA oligosaccharides binding to Link_TSG6; settings: for N / ΔG / ΔH / −TΔS / Kd: 25 °C, 5 mM MES pH 6.0, mean ± SEM; for N: 0.029 mM Link_TSG6, 0.29 mM oligosaccharide; for N / Kd: four titrations; for Kd: read-out: KD; for % Binding affinity Link_TSG6: Table 6, relative to unmodified oligosaccharide of the same length, by ITC
T3 construct: made in house
Protocol: ITC experiments were performed using a MicroCal PEAQ-ITC instrument (Malvern Instruments). Oligosaccharide stock solutions were prepared at 0.29 mM (in 5 mM MES, pH 6.0) and injected (18 × 2 μl with 120 s spacing between injections) into the cell containing ∼200 μl Link_TSG6 (0.029 mM) in matched buffer at 25 °C. Data were fit to a one site binding model, after subtracting the heats from the last three injections to account for heat of dilution of the oligosaccharide into buffer. Each oligosaccharide was analyzed in four independently performed ITC experiments.

T3 sequence (P98066 36-129 limits assumed): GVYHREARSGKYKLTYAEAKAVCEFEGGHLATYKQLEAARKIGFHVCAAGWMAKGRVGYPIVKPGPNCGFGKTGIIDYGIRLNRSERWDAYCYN
T1 sequence (P98066 18-277): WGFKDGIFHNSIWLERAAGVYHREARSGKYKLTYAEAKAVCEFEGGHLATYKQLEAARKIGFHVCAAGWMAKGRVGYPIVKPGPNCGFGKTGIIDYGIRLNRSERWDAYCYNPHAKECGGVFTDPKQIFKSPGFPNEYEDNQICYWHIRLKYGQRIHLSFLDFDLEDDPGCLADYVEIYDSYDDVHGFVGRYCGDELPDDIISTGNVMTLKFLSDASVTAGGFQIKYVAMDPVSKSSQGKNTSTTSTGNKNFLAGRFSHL
T1 sequence (P19827 35-672 limits assumed): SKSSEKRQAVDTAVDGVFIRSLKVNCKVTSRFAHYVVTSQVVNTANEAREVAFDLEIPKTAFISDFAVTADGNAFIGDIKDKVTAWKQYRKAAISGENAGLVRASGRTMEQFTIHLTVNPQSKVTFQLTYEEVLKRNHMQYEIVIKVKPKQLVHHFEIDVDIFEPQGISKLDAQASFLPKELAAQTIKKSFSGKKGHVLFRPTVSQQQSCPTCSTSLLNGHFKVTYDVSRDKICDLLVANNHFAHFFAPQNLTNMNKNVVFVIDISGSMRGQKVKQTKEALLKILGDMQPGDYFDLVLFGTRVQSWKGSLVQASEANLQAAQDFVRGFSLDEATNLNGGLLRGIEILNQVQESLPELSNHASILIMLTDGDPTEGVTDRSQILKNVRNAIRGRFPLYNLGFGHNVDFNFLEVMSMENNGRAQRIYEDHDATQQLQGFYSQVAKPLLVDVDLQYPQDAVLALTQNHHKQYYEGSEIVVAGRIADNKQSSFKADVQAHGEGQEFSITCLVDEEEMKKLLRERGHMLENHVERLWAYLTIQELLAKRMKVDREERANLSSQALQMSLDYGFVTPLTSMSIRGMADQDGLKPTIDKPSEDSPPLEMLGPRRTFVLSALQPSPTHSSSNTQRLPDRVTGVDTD
T2 sequence (P16070 20-169): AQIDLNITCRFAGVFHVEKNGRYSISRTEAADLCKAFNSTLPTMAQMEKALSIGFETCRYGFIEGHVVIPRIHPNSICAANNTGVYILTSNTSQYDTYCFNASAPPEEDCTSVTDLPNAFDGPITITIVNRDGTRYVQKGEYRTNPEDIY

SMILES | Substrate for HC transfer (recombinant human TSG-6) | Activity as substrate for HC transfer (text) (recombinant human TSG-6) | % of binding to hisCD44_HABD^20–169 compared to the unmodified oligosaccharide of the same length (hisCD44_HABD^20–169; MST) | % HAx^AN: percentage of binding affinity (KB) compared to the unmodified oligosaccharide of the same length (hisCD44_HABD^20–169; Table 5, MST) | Kd (hisCD44_HABD^20–169; Table 5, MST, mean ± SD) | % Binding affinity hisCD44_HABD^20–169 (hisCD44_HABD^20–169) | N (Link_TSG6; Table 4, ITC) | ΔG (Link_TSG6; Table 4, ITC) | ΔH (Link_TSG6; Table 4, ITC) | −TΔS (Link_TSG6; Table 4, ITC) | Kd (Link_TSG6; Table 4, ITC) | % Binding affinity Link_TSG6 (Link_TSG6) | Fold increase in affinity for CD44_HABD compared to the unmodified oligosaccharide (hisCD44_HABD^20–169; MST) | % of binding to Link_TSG6 compared to the unmodified oligosaccharide of the same length (Link_TSG6; ITC) | also measured
CC(=O)N[C@H]1[C@H](O[C@H]2[C@H](O)[C@@H](O)[C@H](O[C@H]3[C@H](O)[C@@H](CO)O[C@@H](O[C@H]4[C@H](O)[C@@H](O)[C@H](O[C@@H]([C@H](O)[C@H](O)CO)[C@H](CNc5cc[nH]n5)NC(C)=O)O[C@@H]4C(=O)O)[C@@H]3NC(C)=O)O[C@@H]2C(=O)O)O[C@H](CO)[C@@H](O)[C@@H]1O[C@@H]1O[C@H](C(=O)O)[C@@H](O)[C@H](O)[C@H]1O [HA6-3APY] | Yes | good substrates; also recorded: could become covalently coupled to an HC | 91% | 91% | 113 ± 6 µM | 91% | 0.93 ± 0.02 | -7.77 ± 0.15 kcal/mol | -7.82 ± 0.73 kcal/mol | 0.04 ± 0.87 kcal•mol^a1 | 2.24 ± 0.68 µM | 49% | – | – | –
CC(=O)N[C@H]1[C@H](O[C@H]2[C@H](O)[C@@H](O)[C@H](O[C@H]3[C@H](O)[C@@H](CO)O[C@@H](O[C@H]4[C@H](O)[C@@H](O)[C@H](O[C@@H]([C@H](O)[C@H](O)CO)[C@H](CNc5cccc6c5CCC6)NC(C)=O)O[C@@H]4C(=O)O)[C@@H]3NC(C)=O)O[C@@H]2C(=O)O)O[C@H](CO)[C@@H](O)[C@@H]1O[C@@H]1O[C@H](C(=O)O)[C@@H](O)[C@H](O)[C@H]1O [HA6-4AI] | No | No HC•HA6 complexes were observed | 28% | 28% | 369 ± 43 µM | 28% | 0.97 ± 0.03 | -7.98 ± 0.03 kcal/mol | -7.16 ± 0.32 kcal/mol | −0.82 ± 0.30 kcal•mol^a1 | 1.42 ± 0.06 µM | 77% | – | – | –
CC(=O)N[C@H]1[C@H](O[C@H]2[C@H](O)[C@@H](O)[C@H](O[C@H]3[C@H](O)[C@@H](CO)O[C@@H](O[C@H]4[C@H](O)[C@@H](O)[C@H](O[C@@H]([C@H](O)[C@H](O)CO)[C@H](CNc5ccc6c(c5)CCC6)NC(C)=O)O[C@@H]4C(=O)O)[C@@H]3NC(C)=O)O[C@@H]2C(=O)O)O[C@H](CO)[C@@H](O)[C@@H]1O[C@@H]1O[C@H](C(=O)O)[C@@H](O)[C@H](O)[C@H]1O [HA6-5AI] | No | No HC•HA6 complexes were observed | 133% | 133% | 77 ± 12 µM | 133% | 1.03 ± 0.02 | -8.43 ± 0.08 kcal/mol | -7.46 ± 0.37 kcal/mol | −0.96 ± 0.42 kcal•mol^a1 | 0.68 ± 0.08 µM | 162% | 1.3 fold | ~162% | –
CC(=O)N[C@H]1[C@H](O[C@H]2[C@H](O)[C@@H](O)[C@H](O[C@H]3[C@H](O)[C@@H](CO)O[C@@H](O[C@H]4[C@H](O)[C@@H](O)[C@H](O[C@H]5[C@H](O)[C@@H](CO)OC(O)[C@@H]5NC(C)=O)O[C@@H]4C(=O)O)[C@@H]3NC(C)=O)O[C@@H]2C(=O)O)O[C@H](CO)[C@@H](O)[C@@H]1O[C@@H]1O[C@H](C(=O)O)[C@@H](O)[C@H](O)[C@H]1O (stereo partly shown) [HA6^AN, reference compound] | No | did not | – | 100% | – | 100% | – | – | – | 0.162 ± 0.21 kcal•mol^a1 | – | 100% | – | – | % HAn^AN: percentage of binding affinity (KB) compared to the unmodified oligosaccharide of the same length (hisCD44_HABD^20–169; Table 2, MST): 100%; Kd (hisCD44_HABD^20–169; Table 2, MST, mean (±SD)): 103 µM; N (Link_TSG6; Table 1, ITC): 1.04 ± 0.04; ΔG (Link_TSG6; Table 1, ITC): -8.13 ± 0.02 kcal/mol; ΔH (Link_TSG6; Table 1, ITC): -8.29 ± 0.19 kcal/mol; −TΔS (Link_TSG6; Table 1, ITC): 0.162 ± 0.21 kcal/mol; Kd (Link_TSG6; Table 1, ITC): 1.09 ± 0.04 µM
COc1ccc(C(=O)O)c(NC[C@H](NC(C)=O)[C@@H](O[C@@H]2O[C@H](C(=O)O)[C@@H](O[C@@H]3O[C@H](CO)[C@@H](O)[C@H](O[C@@H]4O[C@H](C(=O)O)[C@@H](O[C@@H]5O[C@H](CO)[C@@H](O)[C@H](O[C@@H]6O[C@H](C(=O)O)[C@@H](O[C@@H]7O[C@H](CO)[C@@H](O)[C@H](O[C@@H]8O[C@H](C(=O)O)[C@@H](O)[C@H](O)[C@H]8O)[C@H]7NC(C)=O)[C@H](O)[C@H]6O)[C@H]5NC(C)=O)[C@H](O)[C@H]4O)[C@H]3NC(C)=O)[C@H](O)[C@H]2O)[C@H](O)[C@H](O)CO)c1 [HA8-2A4MBA] | Yes | – | 141% | 141% | 36 ± 9 µM | 141% | 1.04 ± 0.08 | -8.23 ± 0.40 kcal/mol | -8.06 ± 1.55 kcal/mol | −0.16 ± 1.94 kcal•mol^a1 | 1.46 ± 0.96 µM | 21% | 1.4 fold | 21% | Fold reduction in affinity for Link_TSG6 compared to the unmodified oligosaccharide (Link_TSG6; ITC): 4.8 fold
CC(=O)N[C@H]1[C@H](O[C@H]2[C@H](O)[C@@H](O)[C@H](O[C@H]3[C@H](O)[C@@H](CO)O[C@@H](O[C@H]4[C@H](O)[C@@H](O)[C@H](O[C@H]5[C@H](O)[C@@H](CO)O[C@@H](O[C@H]6[C@H](O)[C@@H](O)[C@H](O[C@@H]([C@H](O)[C@H](O)CO)[C@H](CNc7cc[nH]n7)NC(C)=O)O[C@@H]6C(=O)O)[C@@H]5NC(C)=O)O[C@@H]4C(=O)O)[C@@H]3NC(C)=O)O[C@@H]2C(=O)O)O[C@H](CO)[C@@H](O)[C@@H]1O[C@@H]1O[C@H](C(=O)O)[C@@H](O)[C@H](O)[C@H]1O [HA8-3APY] | Yes | – | 23% | 23% | 220 ± 22 µM | 23% | 1.19 ± 0.06 | -8.97 ± 0.07 kcal/mol | -5.70 ± 0.34 kcal/mol | −3.28 ± 0.28 kcal•mol^a1 | 0.27 ± 0.03 µM | 115% | – | – | –
